Measured values: US20220111055A1, “MODIFIED HYDROPHOBIC EXCIPIENT AND PREPARATION METHOD THEREOF” (ZHEJIANG ZHIDA PHARMACEUTICAL CO., LTD., priority 2019, published 2022)

Assay: Solubility of paclitaxel in olive oil, castor oil and hydrophobic excipients (crystal formation in dried sample)
Format: physicochemical
Conditions: for solubility of paclitaxel (crystal formation in the dried sample): 0.5 ml paclitaxel chloroform solution (10 mg/ml), volatilized overnight
Method: The specific experimental method was as follows. […] The chloroform solution was mixed with 0.5 ml of chloroform, from which 0.5 ml of diluent was taken and two-fold serial dilution was performed by using chloroform. Then 0.5 ml of a chloroform solution of paclitaxel (10 mg/ml) was added to the above-mentioned sample after the two-fold serial dilution, and then left in a hood to be naturally volatilized overnight. Crystal formation in the dried sample was observed and recorded.

SMILES: CCCCCCCC/C=C\CCCCCCCCNC(=O)CC[C@@H](C)[C@H]1CC[C@H]2[C@@H]3[C@H](OC(=O)CNC(=O)[C@H](CCCCNC(=O)OC(C)(C)C)NC(=O)OCC4c5ccccc5-c5ccccc54)C[C@@H]4C[C@H](OC(=O)CNC(=O)[C@H](CCCCNC(=O)OC(C)(C)C)NC(=O)OCC5c6ccccc6-c6ccccc65)CC[C@]4(C)[C@H]3C[C@H](OC(=O)CNC(=O)[C@H](CCCCNC(=O)OC(C)(C)C)NC(=O)OCC3c4ccccc4-c4ccccc43)[C@]12C [Example 4]
- solubility of paclitaxel (crystal formation in the dried sample) (0.98 mg hydrophobic excipient): +
- solubility of paclitaxel (crystal formation in the dried sample) (1.95 mg hydrophobic excipient): +
- solubility of paclitaxel (crystal formation in the dried sample) (3.90 mg hydrophobic excipient): +
- solubility of paclitaxel (crystal formation in the dried sample) (7.81 mg hydrophobic excipient): +/−
- solubility of paclitaxel (crystal formation in the dried sample) (15.65 mg hydrophobic excipient): −
- solubility of paclitaxel (crystal formation in the dried sample) (31.30 mg hydrophobic excipient): −
- solubility of paclitaxel (crystal formation in the dried sample) (62.50 mg hydrophobic excipient): −
- solubility of paclitaxel (crystal formation in the dried sample) (125.00 mg hydrophobic excipient): −
- solubility of paclitaxel (crystal formation in the dried sample) (250.00 mg hydrophobic excipient): −
- solubility of paclitaxel in the excipient, comparison in words (compared with olive oil and castor oil, from Table 1): greater than that in olive oil and castor oil
